Test: Thermal stability by TGA and comparative UV-Vis before and after heating up to 220° C.
Type: physicochemical
Protocol: Thermal transitions of polymer films were obtained using DSC (TA instruments Q100) at a heating rate of 10° C./min over a temperature range of about −80 to 200° C. The thermal properties of the polymers were measured by thermogravimetric analysis (TGA) on a TA Instruments, […]. The samples were heated up to 220° C. at a heating rate of 15° C./min under a dry nitrogen atmosphere (flow rate: 70 mL/min) on a TA Instruments 2950 thermogravimetric analyzer. X-ray diffraction (XRD) measurements were conducted via a Rigaku diffractometer in transmission mode with Cu Kα X-rays (λ=0.154 nm) operating at 40 kV and 40 mA. The experiment was carried out at 25° C. with a scan speed of 0.5°/min over a scan range of 5° to 40°.
The thermal property of the polymer-guest system was also investigated by the TGA to ensure system stability during the high temperature layer multiplying coextrusion process. […] A viscosity-match temperature of layer multiplying co-extrusion was determined by a melt flow indexer (MFI) at a low shear rate as shown in FIG. 5. A 60/40 feed ratio of PEO100K/PEO200K in layer B was obtained with the processing temperature of 200° C. selected based on material rheological compatibility. The ABAB-type layer multiplication process was conducted accordingly with PE as the protective surface layer and the technique described herein used to form the multilayer film.

In the case of CN(C)c1ccc(N=Nc2ccc(S(=O)(=O)[O-])cc2)cc1.[Na+] [MO, methyl orange], the “conjugation structure of MO after heating (comparative UV-Vis)” value is reported as “remained intact”.
